# Biological target: T1, human SLC6A19 and TMEM27 (Homo sapiens, UniProt Q695T7)
# T1 construct: expressed in transfected cells
# T1 sequence (Q695T7 1-634): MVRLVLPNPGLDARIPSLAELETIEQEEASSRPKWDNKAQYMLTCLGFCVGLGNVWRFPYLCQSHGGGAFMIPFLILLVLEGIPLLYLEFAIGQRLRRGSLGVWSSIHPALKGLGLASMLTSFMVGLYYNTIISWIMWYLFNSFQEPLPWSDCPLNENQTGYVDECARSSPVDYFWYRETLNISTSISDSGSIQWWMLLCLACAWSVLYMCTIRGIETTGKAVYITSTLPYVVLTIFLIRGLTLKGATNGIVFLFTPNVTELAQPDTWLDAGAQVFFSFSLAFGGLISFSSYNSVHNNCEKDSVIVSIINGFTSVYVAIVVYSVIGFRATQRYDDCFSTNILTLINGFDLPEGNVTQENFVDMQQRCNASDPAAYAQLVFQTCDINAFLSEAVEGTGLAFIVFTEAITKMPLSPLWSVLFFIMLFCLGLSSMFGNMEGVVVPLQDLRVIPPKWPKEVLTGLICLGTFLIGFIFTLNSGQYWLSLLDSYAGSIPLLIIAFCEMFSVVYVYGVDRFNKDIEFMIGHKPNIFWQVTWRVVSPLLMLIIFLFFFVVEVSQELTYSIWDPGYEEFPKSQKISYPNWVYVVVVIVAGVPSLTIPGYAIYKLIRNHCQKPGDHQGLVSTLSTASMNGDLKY
# T1 sequence (Q9HBJ8 15-222 partner): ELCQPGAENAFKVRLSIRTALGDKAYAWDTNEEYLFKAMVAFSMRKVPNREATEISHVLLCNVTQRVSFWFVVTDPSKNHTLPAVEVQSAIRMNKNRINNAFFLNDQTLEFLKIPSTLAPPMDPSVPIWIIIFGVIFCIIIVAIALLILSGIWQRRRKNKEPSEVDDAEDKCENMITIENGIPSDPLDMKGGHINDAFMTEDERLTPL
# Test: Radiolabelled (3H) leucine uptake in CHO cells with doxycycline-inducible expression of human SLC6A19 and TMEM27 (Example B-1)
# Assay type: cell-based
# Details: CHO cells with doxycycline-inducible expression of human SLC6A19 and TMEM27, read-out: SLC6A19_Radioligand Uptake Assay IC50
# Method in brief: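 CHO cells were induced with doxycycline for 18 h at 37 °C, washed in HBSS, then exposed to compounds for 1 h: 8-point, 3-fold dilutions in duplicate, 0.5% DMSO final. Uptake measured by scintillation counting after 2 h shaking. Activity normalized with positive control as 0% and DMSO as 100%.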
row,Compound,IC50 [nM]
1,"C[C@@H](O)C(=O)NCc1cc2cc(F)c(OCc3cscn3)cc2[nH]1 [Compound 282, (R)-N-((5-fluoro-6-(thiazol-4-ylmethoxy)-1H-indol-2-yl)methyl)-2-hydroxypropanamide]",2670
2,"Cc1cc(COc2cc3[nH]c(CNC(=O)[C@@H](C)CO)cc3cc2Cl)on1 [Compound 535, (S)-N-((5-chloro-6-((3-methylisoxazol-5-yl)methoxy)-1H-indol-2-yl)methyl)-3-hydroxy-2-methylpropanamide]",1650
3,"CC(=O)NCc1cc2cc(Cl)c(OCCOCC(F)F)cc2[nH]1 [Compound 650, N-((5-chloro-6-(2-(2,2-difluoroethoxy)ethoxy)-1H-indol-2-yl)methyl)acetamide]",1010
4,"CC(F)(F)C(=O)NCc1cc2cc(Cl)c(OCc3cscn3)cc2[nH]1 [Compound 435, N-((5-chloro-6-(thiazol-4-ylmethoxy)-1H-indol-2-yl)methyl)-2,2-difluoropropanamide]",133
5,"Cc1cc(COc2cc3[nH]c(CNC(=O)C4(CO)CC4)cc3cc2Cl)on1 [Compound 250, N-((5-chloro-6-((3-methylisoxazol-5-yl)methoxy)-1H-indol-2-yl)methyl)-1-(hydroxymethyl)cyclopropane-1-carboxamide]",383
6,"CC(F)(F)C(=O)NCc1cc2cc(F)c(OCc3cscn3)cc2[nH]1 [Compound 436, 2,2-difluoro-N-((5-fluoro-6-(thiazol-4-ylmethoxy)-1H-indol-2-yl)methyl)propanamide]",97
7,"Cc1cc(COc2cc3[nH]c(CNC(=O)C(C)C#N)cc3cc2Cl)on1 (single isomer, unassigned) [Compound 447, (S or R)-N-((5-chloro-6-((3-methylisoxazol-5-yl)methoxy)-1H-indol-2-yl)methyl)-2-cyanopropanamide]",208
8,"CC1(C(=O)NCc2cc3cc(Cl)c(OCCc4cccnc4)cc3[nH]2)CC1 [Compound 331, N-((5-chloro-6-(2-(pyridin-3-yl)ethoxy)-1H-indol-2-yl)methyl)-1-methylcyclopropane-1-carboxamide]",452
9,"[2H]C([2H])([2H])C1(C(=O)NCc2cc3cc(F)c(OCc4cscn4)cc3[nH]2)CC1 [Compound 482, N-((5-fluoro-6-(thiazol-4-ylmethoxy)-1H-indol-2-yl)methyl)-1-(methyl-d3)cyclopropane-1-carboxamide]",149
10,"O=C(NCc1cc2cc(Cl)c(OCc3cscn3)cc2[nH]1)C1CC2(CCC2)C1 [Compound 557, N-((5-chloro-6-(thiazol-4-ylmethoxy)-1H-indol-2-yl)methyl)spiro[3.3]heptane-2-carboxamide]",> 8240
11,"CC(O)C(=O)NCc1cc2cc(Cl)c(OCc3cscn3)cc2[nH]1 (stereo not shown) [Compound 243, N-((5-chloro-6-(thiazol-4-ylmethoxy)-1H-indol-2-yl)methyl)-2-hydroxypropanamide]",336
12,"COCCNC(=O)NCc1cc2cc(Cl)c(OCc3cscn3)cc2[nH]1 [Compound 380, 1-((5-chloro-6-(thiazol-4-ylmethoxy)-1H-indol-2-yl)methyl)-3-(2-methoxyethyl)urea]",1130
13,"O=C(NCc1cc2cc(Cl)c(OCc3cscn3)cc2[nH]1)N1CCC(O)C1 (racemic) [Compound 366, (R)-N-((5-chloro-6-(thiazol-4-ylmethoxy)-1H-indol-2-yl)methyl)-3-hydroxypyrrolidine-1-carboxamide and (S)-N-((5-chloro-6-(thiazol-4-ylmethoxy)-1H-indol-2-yl)methyl)-3-hydroxypyrrolidine-1-carboxamide]",1530
14,"C[C@H](O)C(=O)NCc1cc2cc(F)c(OCc3cscn3)cc2[nH]1 [Compound 281, (S)-N-((5-fluoro-6-(thiazol-4-ylmethoxy)-1H-indol-2-yl)methyl)-2-hydroxypropanamide]",2280
15,"CSc1cc2cc(CNC(=O)C3(C)CC3)[nH]c2cc1OCc1ccon1 [Compound 391, N-((6-(isoxazol-3-ylmethoxy)-5-(methylthio)-1H-indol-2-yl)methyl)-1-methylcyclopropane-1-carboxamide]",225
16,"Cc1cc(COc2cc3[nH]c(CNC(=O)[C@@H](C)O)cc3cc2F)on1 [Compound 283, (R)-N-((5-fluoro-6-((3-methylisoxazol-5-yl)methoxy)-1H-indol-2-yl)methyl)-2-hydroxypropanamide]",> 8950

row,Compound,IC50 [nM]
1,"COc1cc2cc(CNC(=O)C3(C)CC3)[nH]c2cc1CCn1ccnn1 [Compound 588, N-((6-(2-(1H-1,2,3-triazol-1-yl)ethyl)-5-methoxy-1H-indol-2-yl)methyl)-1-methylcyclopropane-1-carboxamide]",3670
2,"COC(=O)NCc1cc2cc(F)c(OCc3cc(C)no3)cc2[nH]1 [Compound 621, methyl ((5-fluoro-6-((3-methylisoxazol-5-yl)methoxy)-1H-indol-2-yl)methyl)carbamate]",1770
3,"CC1(C(=O)NCc2cc3cc(-c4ccno4)c(OCc4cscn4)cc3[nH]2)CC1 [Compound 660, N-((5-(isoxazol-5-yl)-6-(thiazol-4-ylmethoxy)-1H-indol-2-yl)methyl)-1-methylcyclopropane-1-carboxamide]",1580
4,"CC(=O)NCc1cc2cc(Cl)c(OCC3COC3)cc2[nH]1 [Compound 355, N-((5-chloro-6-(oxetan-3-ylmethoxy)-1H-indol-2-yl)methyl)acetamide]",6600
5,"O=C(NCc1cc2cc(Cl)c(OCc3cscn3)cc2[nH]1)[C@@H]1C[C@@H]1F [Compound 542, (1S,2S)-N-((5-chloro-6-(thiazol-4-ylmethoxy)-1H-indol-2-yl)methyl)-2-fluorocyclopropane-1-carboxamide]",123
6,"CSc1cc2cc(CNC(=O)C3(C)CC3)[nH]c2cc1OCc1cscn1 [Compound 348, 1-methyl-N-((5-(methylthio)-6-(thiazol-4-ylmethoxy)-1H-indol-2-yl)methyl)cyclopropane-1-carboxamide]",516
7,"COCC1(C(=O)NCc2cc3cc(Cl)c(OCc4cscn4)cc3[nH]2)CC1 [Compound 279, N-((5-chloro-6-(thiazol-4-ylmethoxy)-1H-indol-2-yl)methyl)-1-(methoxymethyl)cyclopropane-1-carboxamide]",383
8,"CC1(C(=O)NCc2cc3cc(Cl)c(CCn4ccnn4)cc3[nH]2)CC1 [Compound 583, N-((6-(2-(1H-1,2,3-triazol-1-yl)ethyl)-5-chloro-1H-indol-2-yl)methyl)-1-methylcyclopropane-1-carboxamide]",1520
9,"CC(F)C(=O)NCc1cc2cc(Cl)c(OCc3cscn3)cc2[nH]1 (racemic) [Compound 511, (R)-N-((5-chloro-6-(thiazol-4-ylmethoxy)-1H-indol-2-yl)methyl)-2-fluoropropanamide and (S)-N-((5-chloro-6-(thiazol-4-ylmethoxy)-1H-indol-2-yl)methyl)-2-fluoropropanamide]",86.1
10,"Cc1cc(COc2cc3[nH]c(CNC(=O)C4(C)CC4)cc3cc2Cl)sn1 [Compound 398, N-((5-chloro-6-((3-methylisothiazol-5-yl)methoxy)-1H-indol-2-yl)methyl)-1-methylcyclopropane-1-carboxamide]",599
11,"CC1(C(=O)NCc2cc3ccc(OCc4cc(C(F)(F)F)on4)cc3[nH]2)CC1 [Compound 354, 1-methyl-N-((6-((5-(trifluoromethyl)isoxazol-3-yl)methoxy)-1H-indol-2-yl)methyl)cyclopropane-1-carboxamide]",> 5280
12,"N#CCC(=O)NCc1cc2cc(Cl)c(OCc3cscn3)cc2[nH]1 [Compound 437, N-((5-chloro-6-(thiazol-4-ylmethoxy)-1H-indol-2-yl)methyl)-2-cyanoacetamide]",382
13,"O=C(NCc1cc2cc(Cl)c(OCc3cscn3)cc2[nH]1)C1(CO)CC1 [Compound 254, N-((5-chloro-6-(thiazol-4-ylmethoxy)-1H-indol-2-yl)methyl)-1-(hydroxymethyl)cyclopropane-1-carboxamide]",294
14,"CC1(C(=O)NCc2cc3cc(F)c(OCc4cc(C(F)(F)F)on4)cc3[nH]2)CC1 [Compound 72, N-((5-fluoro-6-((5-(trifluoromethyl)isoxazol-3-yl)methoxy)-1H-indol-2-yl)methyl)-1-methylcyclopropane-1-carboxamide]",1240
15,"Cc1cc(COc2cc3[nH]c(CNC(=O)C4(C)CC4)cc3cc2OC(F)F)on1 [Compound 606, N-((5-(difluoromethoxy)-6-((3-methylisoxazol-5-yl)methoxy)-1H-indol-2-yl)methyl)-1-methylcyclopropane-1-carboxamide]",320
